These results are taken from US9187455B2, “Substituted pyridazines as PDE10A inhibitors” (Hoffmann-La Roche Inc., priority 2009, dated 2015).

T1 sequence (Q9Y233 715-1055): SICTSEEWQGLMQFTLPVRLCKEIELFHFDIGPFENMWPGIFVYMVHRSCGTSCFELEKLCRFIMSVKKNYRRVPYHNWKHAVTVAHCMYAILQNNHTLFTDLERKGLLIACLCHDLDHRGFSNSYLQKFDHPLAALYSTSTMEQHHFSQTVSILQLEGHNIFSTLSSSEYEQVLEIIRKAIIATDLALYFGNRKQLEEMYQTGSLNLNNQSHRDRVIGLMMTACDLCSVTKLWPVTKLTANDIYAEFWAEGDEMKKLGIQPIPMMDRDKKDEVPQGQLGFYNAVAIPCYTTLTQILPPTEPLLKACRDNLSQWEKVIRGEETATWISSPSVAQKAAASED

The first experiment concerns the target T1, PDE10A2 (Homo sapiens, UniProt Q9Y233).
T1 construct: residues serine 449 to aspartate 789; His6 (H6) with Gateway linker and thrombin cleavage site (N, cleaved yes); made in house; host or cells: E. coli BL21(DE3) pLysS
The experiment in a line: PDE10A2 Scintillation Proximity Assay (SPA), [3H]-cGMP hydrolysis. In kind it is biochemical. Conditions: catalytic domain of human PDE10A2 (S449-D789), 0.25 nM enzyme, 50 nM cGMP + 50 nM [3H]-cGMP, 30 minutes at room temperature; read-out: PDE10A2 inhibition IC50. Put shortly:
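Recombinant human PDE10A2 catalytic domain (S449–D789, E. coli-expressed), 0.25 nM, with 50 nM cGMP plus 50 nM [3H]-cGMP in 20 mM HEPES/10 mM MgCl2, pH 7.5, 30 min at room temperature. Stopped with YSi-SPA beads in zinc sulphate; counts over a compound concentration range gave IC50.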
A general note: SPA uses beads or plates that emit light when radiolabelled molecules are held near them.
For `O=c1ccn(-c2ccnc(C(F)(F)F)c2)nc1-c1ccnn1-c1cccc(Cl)c1` [Example 95, 3-[2-(3-Chloro-phenyl)-2H-pyrazol-3-yl]-1-(2-trifluoromethyl-pyridin-4-yl)-1H-pyridazin-4-one], the concentration for half-maximal inhibition (IC50) (as a rule, the midpoint of a concentration-inhibition curve) was found to be 73 nM.

`N#Cc1cc(-n2ccc(=O)c(-c3ccnn3-c3ccccc3F)n2)ccn1` [Example 96, 4-{3-[2-(2-Fluoro-phenyl)-2H-pyrazol-3-yl]-4-oxo-4H-pyridazin-1-yl}-pyridine-2-carbonitrile]: the IC50 came out at 308 nM. The same measure, in the same setting: in the case of `O=c1ccn(-c2ccncc2)nc1-c1ccnn1-c1cccc(Br)c1` [Example 97, 3-[2-(3-Bromo-phenyl)-2H-pyrazol-3-yl]-1-pyridin-4-yl-1H-pyridazin-4-one] it was 17 nM. Still for that read-out and setting: under `C#Cc1cccc(-n2nccc2-c2nn(-c3ccncc3)ccc2=O)c1` [Example 99, 3-[2-(3-Ethynyl-phenyl)-2H-pyrazol-3-yl]-1-pyridin-4-yl-1H-pyridazin-4-one] stands 18 nM. The same measure, in the same setting: in the case of `O=c1ccn(-c2ccc3cnccc3c2)nc1-c1ccnn1-c1ccccc1F` [Example 100, 3-[2-(2-Fluoro-phenyl)-2H-pyrazol-3-yl]-1-isoquinolin-6-yl-1H-pyridazin-4-one] it was 31 nM; in that of `O=c1ccn(-c2ccc3cnccc3c2)nc1-c1ccnn1-c1cccc(F)c1` [Example 101, 3-[2-(3-Fluoro-phenyl)-2H-pyrazol-3-yl]-1-isoquinolin-6-yl-1H-pyridazin-4-one], 41 nM. Turning to `O=c1ccn(-c2ccc3ncccc3c2)nc1-c1ccnn1-c1ccccc1F` [Example 102, 3-[2-(2-Fluoro-phenyl)-2H-pyrazol-3-yl]-1-quinolin-6-yl-1H-pyridazin-4-one], the IC50 turned out to be 20 nM. The same measure, in the same setting: in the case of `O=c1ccn(-c2ccc3ncccc3c2)nc1-c1ccnn1-c1cccc(Cl)c1` [Example 103, 3-[2-(3-Chloro-phenyl)-2H-pyrazol-3-yl]-1-quinolin-6-yl-1H-pyridazin-4-one] it was 7 nM.

Another experiment relates to rats.
Assay: not given
Conditions: sub-chronic treatment with PCP, Rodefer et al. 2005; cited from earlier work.
Consider `COc1ccc(Cc2nccc3cc(OC)c(OC)cc23)cc1OC` [papaverine, Papaverine], for which the “effect on deficits in extra-dimensional shift learning” value is “attenuate the deficits in the extra-dimensional shift learning”.
